As a reminder, the pIC50 is the IC50 on a negative log10 scale, so that one unit is a factor of ten. As usually defined, the IC50 is the point on the concentration scale where inhibition reaches its midpoint. A lower IC50 goes with inhibition by little substance.

pIC50: −log10 of the molar value. Counter-ions that a name gives are not always drawn.

Sequence of Hsp82 (P02829 whole entry): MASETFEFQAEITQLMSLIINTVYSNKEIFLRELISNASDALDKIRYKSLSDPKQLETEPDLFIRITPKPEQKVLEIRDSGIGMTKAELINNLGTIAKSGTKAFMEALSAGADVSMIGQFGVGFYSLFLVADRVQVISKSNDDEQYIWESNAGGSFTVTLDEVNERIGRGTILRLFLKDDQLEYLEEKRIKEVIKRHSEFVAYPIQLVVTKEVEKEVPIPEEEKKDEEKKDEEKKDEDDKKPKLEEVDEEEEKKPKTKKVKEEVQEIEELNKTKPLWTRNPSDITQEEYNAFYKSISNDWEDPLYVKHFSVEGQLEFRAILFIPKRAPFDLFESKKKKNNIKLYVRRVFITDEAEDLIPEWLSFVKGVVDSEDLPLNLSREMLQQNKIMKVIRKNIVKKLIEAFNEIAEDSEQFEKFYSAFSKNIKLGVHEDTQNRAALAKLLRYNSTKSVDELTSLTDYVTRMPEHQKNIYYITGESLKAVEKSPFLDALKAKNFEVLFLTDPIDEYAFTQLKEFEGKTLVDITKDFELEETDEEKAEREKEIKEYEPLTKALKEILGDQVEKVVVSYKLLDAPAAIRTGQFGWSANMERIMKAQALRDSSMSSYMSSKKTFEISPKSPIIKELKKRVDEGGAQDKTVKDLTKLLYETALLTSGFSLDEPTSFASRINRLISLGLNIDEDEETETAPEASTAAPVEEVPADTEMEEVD

For one assay, the target named is Hsp82 (Saccharomyces cerevisiae, UniProt P02829). The assay can be described thus: PK/LDH enzyme coupling test of the ATPase activity of Hsp82 (NADH decrease at 340 nm). The class given is biochemical. Particulars: 1 μM Hsp82, 250 μM ATP, 37° C., pyruvate kinase/lactate dehydrogenase coupling, read-out: Hsp82 ATPase IC50. The text has this:
The formation of ADP due to the ATPase activity of Hsp82 was utilized for developing another method of evaluating the enzymatic activity of this enzyme by application of an enzyme coupling system employing pyruvate kinase (PK) and lactate dehydrogenase (LDH). In this spectrophotometric method of the kinetic type, the PK catalyses the formation of ATP and of pyruvate starting from phosphoenol-pyruvate (PEP) and the ADP produced by HSP82. The pyruvate that formed, an LDH substrate, is then converted to lactate in the presence of NADH. In this case, the decrease in the concentration of NADH, measured by the decrease in absorbance at wavelength of 340 nm, is proportional to the concentration of ADP produced by HSP82. […] This mixture is preincubated at 37° C. for 30 min before adding 3.77 units of LDH and 3.77 units of PK. The reaction is started by adding the product to be evaluated, in variable concentrations, and of Hsp82, at a concentration of 1 μM. The enzymatic activity of Hsp82 is then measured continuously in a microplate reader at 37° C., at wavelength of 340 nm. The initial reaction rate is found by measuring the slope of the tangent at the origin of the recorded curve. The enzymatic activity is expressed as μM of ADP formed per minute. The effect of the various products tested is expressed as percentage of inhibition of ATPase activity, using the following codes: • A: […]
For `ON=C1c2ccccc2-c2c1cccc2-c1nc2cnccc2[nH]1` (mixture of isomers) [Example 5, 4-(3H-imidazo[4,5-c]pyridin-2-yl)-fluoren-9-one oxime (Z, E)], the pIC50 is 5.00 to 6.00.
On the same count and under the same terms, for `c1ccc(CNN=C2c3ccccc3-c3c2cccc3-c2nc3cnccc3[nH]2)cc1` (mixture of isomers) [Example 8, N-benzyl-N′-[4-(1H-imidazo[4,5-c]pyridin-2-yl)-fluoren-9-ylidene]-hydrazine, 55/45 mixture of E and Z isomers] the value was 5.00 to 6.00; for `NN=C1c2ccccc2-c2c1cccc2-c1nc2cnccc2[nH]1` (mixture of isomers) [Example 9, N-[4-(1H-imidazo[4,5-c]pyridin-2-yl)-fluoren-9-ylidene]-hydrazine, 60/40 mixture of E and Z isomers], 5.00 to 6.00; for `c1cncc(CON=C2c3ccccc3-c3c2cccc3-c2nc3cnccc3[nH]2)c1` (mixture of isomers) [Example 11, O-(pyridin-3-yl)methyl 4-(3H-imidazo[4,5-c]pyridin-2-yl)-fluoren-9-one oxime (Z, E)], 5.00 to 6.00.
Still for that read-out and setting: for `OC=C1c2ccccc2-c2c1cccc2-c1nc2cnccc2[nH]1` (mixture of isomers) [Example 13, [4-(1H-imidazo[4,5-c]pyridin-2-yl)-fluoren-(9)-ylidene]-methanol, equimolecular mixture of the Z and E isomers] the value was 4.00 to 5.00; for `O=C(C=C1c2ccccc2-c2c1cccc2-c1nc2cnccc2[nH]1)Nc1cccnc1` (mixture of isomers) [Example 17, 2-[4-(3H-imidazo[4,5-c]pyridin-2-yl)-fluoren-(9E,Z)-ylidene]-N-pyridin-3-yl-acetamide], 5.00 to 6.00.
The same measure, in the same setting: the result for `NC(=O)[C@H](N)CC(=O)NC1c2ccccc2-c2c(-c3nc4cnccc4[nH]3)cccc21` (mixture of isomers) [Example 62, (R)-2-amino-N4-[4-(3H-imidazo[4,5-c]pyridin-2-yl)-9H-fluoren-9(R,S)-yl]-succinamide] reads 5.00 to 6.00; that for `O=C(NCc1ccc(Cl)nc1)C1c2ccccc2-c2c(-c3nc4cnccc4[nH]3)cccc21` (racemic) [Example 2, (6-chloropyridin-3-ylmethyl)-amide of 4-(1H-imidazo[4,5-c]pyridin-2-yl)-9H-fluorene-9(R,S)-carboxylic acid], 4.00 to 5.00; that for `OC1c2ccccc2-c2c(-c3nc4cnccc4[nH]3)cccc21` (racemic) [Example 3, 4-(3H-imidazo[4,5-c]pyridin-2-yl)-9H-fluoren-9(R,S)-ol], 4.00 to 5.00.
With `O=C(NCc1ccncc1)C1c2ccccc2-c2c(-c3nc4cnccc4[nH]3)cccc21` (racemic) [Example 4, hydrochloride of the (pyridin-4-ylmethyl)-amide of 4-(3H-imidazo[4,5-c]pyridin-2-yl)-9H-fluorene-9(R,S)-carboxylic acid], the pIC50 was 4.00 to 5.00.
As to `NC1c2ccccc2-c2c(-c3nc4cnccc4[nH]3)cccc21` (racemic) [Example 6, 4-(3H-imidazo[4,5-c]pyridin-2-yl)-9H-fluorene-9(R,S)-amine], the pIC50 is 4.00 to 5.00.
The same measure, in the same setting: the result for `FC1c2ccccc2-c2c(-c3nc4cnccc4[nH]3)cccc21` (racemic) [Example 10, 2-[9(R,S)-fluoro-9H-fluoren-4-yl]-1H-imidazo[4,5-c]pyridine] reads 5.00 to 6.00; that for `O=CNC1c2ccccc2-c2c(-c3nc4cnccc4[nH]3)cccc21` (racemic) [Example 12, N-[4-(3H-imidazo[4,5-c]pyridin-2-yl)-9H-fluoren-9(R,S)-yl]-formamide], 4.00 to 5.00.
`c1ccc(CCNC2c3ccccc3-c3c(-c4nc5cnccc5[nH]4)cccc32)cc1` (racemic) [Example 16, N-[4-(3H-imidazo[4,5-c]pyridin-2-yl)-9H-fluoren-9(R,S)-yl]-phenethyl-amine]: the pIC50 is 4.00 to 5.00.
The same measure, in the same setting: the result for `c1ccc2c(c1)-c1c(-c3nc4cnccc4[nH]3)cccc1C2NCc1ccc2[nH]ccc2c1` (racemic) [Example 18, N-[4-(3H-imidazo[4,5-c]pyridin-2-yl)-9H-fluoren-9(R,S)-yl]-(1H-indol-5-ylmethyl)-amine] reads 4.00 to 5.00; that for `CCOC(=O)NC1c2ccccc2-c2c(-c3nc4cnccc4[nH]3)cccc21` (racemic) [Example 20, ethyl ester of [4-(3H-imidazo[4,5-c]pyridin-2-yl)-9H-fluoren-9(R,S)-yl]-carbamoic acid], 5.00 to 6.00.
Same read-out and setting: the result for `O=C(Cc1cccnc1)NC1c2ccccc2-c2c(-c3nc4cnccc4[nH]3)cccc21` (racemic) [Example 21, N-[4-(3H-imidazo[4,5-c]pyridin-2-yl)-9H-fluoren-9(R,S)-yl]-2-(pyridin-3-yl)-acetamide] reads 5.00 to 6.00; that for `c1ccc2c(c1)-c1c(-c3nc4cnccc4[nH]3)cccc1C2NCc1ccc2cc[nH]c2c1` (racemic) [Example 22, N-[4-(3H-imidazo[4,5-c]pyridin-2-yl)-9H-fluoren-9(R,S)-yl]-(1H-indol-6-ylmethyl)-amine], 4.00 to 5.00; that for `Nc1nc(CC(=O)NC2c3ccccc3-c3c(-c4nc5cnccc5[nH]4)cccc32)cs1` (racemic) [Example 24, trifluoroacetate of 2-(2-amino-thiazol-4-yl)-N-[4-(3H-imidazo[4,5-c]pyridin-2-yl)-9H-fluoren-9(R,S)-yl]-acetamide], 5.00 to 6.00.
On the same count and under the same terms, the result for `O=C(Cc1ccc(Cl)nc1)NC1c2ccccc2-c2c(-c3nc4cnccc4[nH]3)cccc21` (racemic) [Example 25, 2-(6-chloropyridin-3-yl)-N-[4-(3H-imidazo[4,5-c]pyridin-2-yl)-9H-fluoren-9(R,S)-yl]-acetamide] reads 5.00 to 6.00.
As to `c1ccc2c(c1)-c1c(-c3nc4ccncc4[nH]3)cccc1C2NCc1cccc2ncccc12` (racemic) [Example 26, trifluoroacetate of N-[4-(3H-imidazo[4,5-c]pyridin-2-yl)-9H-fluoren-9(R,S)-yl]-quinolin-5-yl-methylamine], the pIC50 is 5.00 to 6.00.
Turning to `COc1ccc(CC(=O)NC2c3ccccc3-c3c(-c4nc5cnccc5[nH]4)cccc32)cc1` (racemic) [Example 27, N-[4-(3H-imidazo[4,5-c]pyridin-2-yl)-9H-fluoren-9(R,S)-yl]-2-(4-methoxy-phenyl)-acetamide], the negative-log IC50 (pIC50) is 5.00 to 6.00.
For `O=C(O)C1c2ccccc2-c2c(-c3nc4cnccc4[nH]3)cccc21` (racemic) [Example 29, hydrochloride of 4-(1H-imidazo[4,5-c]pyridin-2-yl)-9H-fluorene-9(R,S)-carboxylic acid], the negative-log IC50 (pIC50) is 4.00 to 5.00.
Same read-out and setting: the result for `O=C(NC1c2ccccc2-c2c(-c3nc4ccncc4[nH]3)cccc21)c1cc(O)nc2ccccc12` (racemic) [Example 31, [4-(3H-imidazo[4,5-c]pyridin-2-yl)-9H-fluoren-9(R,S)-yl]amide of 2-hydroxy-quinoline-4-carboxylic acid] reads 5.00 to 6.00; that for `O=C(NC1c2ccccc2-c2c(-c3nc4ccncc4[nH]3)cccc21)C1CCOCC1` (racemic) [Example 32, [4-(3H-imidazo[4,5-c]pyridin-2-yl)-9H-fluoren-9(R,S)-yl]amide of tetrahydropyran-4-carboxylic acid], 4.00 to 5.00.
On the same count and under the same terms, the result for `CC(C)(C)OC(=O)N1CCC(C(=O)NC2c3ccccc3-c3c(-c4nc5ccncc5[nH]4)cccc32)CC1` (racemic) [Example 33, tert-butyl ester of 4-[4-(3H-imidazo[4,5-c]pyridin-2-yl)-9H-fluoren-9(R,S)-ylcarbamoyl]-piperidine-1-carboxylic acid] reads 5.00 to 6.00; that for `O=C(NC1c2ccccc2-c2c(-c3nc4ccncc4[nH]3)cccc21)c1cccc2cc(O)ccc12` (racemic) [Example 34, hydrochloride of [4-(3H-imidazo[4,5-c]pyridin-2-yl)-9H-fluoren-9(R,S)-yl]amide of 6-hydroxy-naphthalene-1-carboxylic acid], 5.00 to 6.00.
The same measure, in the same setting: for `O=C(NC1c2ccccc2-c2c(-c3nc4ccncc4[nH]3)cccc21)c1cccc2cnccc12` (racemic) [Example 35, [4-(3H-imidazo[4,5-c]pyridin-2-yl)-9H-fluoren-9(R,S)-yl]amide of isoquinoline-5-carboxylic acid] the value was 4.00 to 5.00; for `O=C(NC1c2ccccc2-c2c(-c3nc4ccncc4[nH]3)cccc21)C(=O)c1ccoc1` (racemic) [Example 36, 2-furan-3-yl-N-[4-(3H-imidazo[4,5-c]pyridin-2-yl)-9H-fluoren-9(R,S)-yl]-2-oxo-acetamide], 5.00 to 6.00.
As to `O=C(Cc1ccncc1)NC1c2ccccc2-c2c(-c3nc4ccncc4[nH]3)cccc21` (racemic) [Example 37, N-[4-(3H-imidazo[4,5-c]pyridin-2-yl)-9H-fluoren-9(R,S))-yl]-2-pyridin-4-yl-acetamide trifluoroacetate], the negative-log IC50 (pIC50) was 5.00 to 6.00.

The assay is the same for the next values; noted with them: Hsp82 ATPase IC50 μM, 1 μM Hsp82, 250 μM ATP, 37° C., pyruvate kinase/lactate dehydrogenase coupling.
For `NC(=O)NC1c2ccccc2-c2c(-c3nc4ccncc4[nH]3)cccc21` (racemic) [Example 28, [4-(3H-imidazo[4,5-c]pyridin-2-yl)-9H-fluoren-9(R,S)-yl]-urea trifluoroacetate], the IC50 lay in the range of 10 to 100 µM.

The values are drawn from patent publication US7674795B2, “Fluorene derivatives, composition containing said derivatives and the use thereof” (Aventis Pharma SA, priority 2005, dated 2010).
